From US20010046687A1, “Method for the enhancement of luminescence intensity from a reaction between adenosine triphosphate (ATP) and a luciferase/luciferin reactant system” (priority 2000, published 2001)

Molecular target: T1, luciferase (Photinus pyralis, UniProt P08659)
T1 construct: purchased Analytical Luminescent Laboratories (ALL), Sparks, Maryland #2005
Assay: luminescence from the reaction between ATP and a luciferase/luciferin reactant system loaded on reagent discs
Assay type: biochemical
Excerpt: FIG. 11 is a plot of relative luminescent intensity for reactant mixtures prepared with (♦) and without (▪) trehalose in the reactant loading solution for use with the device of FIG. 1.
FIG. 12 is a plot of luminescent intensity as a function of the concentration of trehalose in the reactant solution for use with the device of FIG. 1.
As discussed above, the inherent chemical and mechanical stability of the polymeric material is ideally suited for use as a medium on which to load the chemiluminescent reagents for the practice of the present invention. A number of commercial enterprises market luciferin-luciferase reagent kits for use in chemiluminescent reaction assays. One that the inventors have found to be particularly well suited for the practice of the present invention is the “Firelight®” luciferin-luciferase reagent kit provided by Analytical Luminescent Laboratories (ALL) of Sparks, Maryland. […] This provides for a greater intensity of luminescence, and faster reaction kinetics.
In the preparation of the reagent discs 48, the reactant concentrate is loaded, preferably drop-wise, onto the Merocel® CF50, obtained in pre-sterilized sheets. The coated sheets are then dried at ambient temperatures under a vacuum, and the reagent discs are cut from the sheets in an appropriate size and shape. Alternatively, discs may be cut first and then loaded with appropriate reagent solution. When loaded in such fashion with the reagent mixture, reagent discs, approximately 6 mm in diameter and approximately 1.5 mm in height, carry approximately 0.5 mg of the dried reactant mixture.
It is recognized in the prior art that trehalose will stabilize delicate materials while they are freeze-dried. Freeze drying as a technique was devised as being the only way certain sensitive materials can be handled. Ordinary drying at ambient or elevated temperature and at atmospheric or reduced pressure causes irreversible degradation of very many such substances, so much so that it has been accepted that sensitive proteins must not be dried at ambient temperature. […]

T1 sequence (P08659 whole entry): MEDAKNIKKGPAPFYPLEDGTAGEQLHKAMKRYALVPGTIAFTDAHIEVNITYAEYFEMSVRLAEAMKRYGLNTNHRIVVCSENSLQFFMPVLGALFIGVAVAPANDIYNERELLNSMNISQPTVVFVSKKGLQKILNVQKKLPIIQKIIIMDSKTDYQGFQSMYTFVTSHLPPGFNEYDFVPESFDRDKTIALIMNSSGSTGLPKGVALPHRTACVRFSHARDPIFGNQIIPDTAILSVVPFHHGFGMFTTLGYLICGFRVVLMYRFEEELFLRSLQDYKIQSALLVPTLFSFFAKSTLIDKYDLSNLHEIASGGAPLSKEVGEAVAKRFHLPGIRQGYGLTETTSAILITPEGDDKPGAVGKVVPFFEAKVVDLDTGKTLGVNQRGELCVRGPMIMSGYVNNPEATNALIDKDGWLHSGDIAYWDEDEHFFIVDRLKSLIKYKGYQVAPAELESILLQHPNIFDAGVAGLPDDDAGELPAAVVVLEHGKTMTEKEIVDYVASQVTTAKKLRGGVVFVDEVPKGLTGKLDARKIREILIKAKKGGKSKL

`OC[C@H]1O[C@H](O[C@H]2O[C@H](CO)[C@@H](O)[C@H](O)[C@H]2O)[C@H](O)[C@@H](O)[C@@H]1O` [trehalose, a-D-glucopyranosyl-a-D-glucopyranoside] was tested, and the “observed luminescent intensities versus the same loading of reagents without the trehalose” value (6 mm×1.5 mm reagent disc, total loading approximately 4 mg including trehalose, FIG. 12) was “more than twice”, the “stabilization effect on the chemiluminescent reactant mixture” value (reactant mixtures prepared with and without trehalose in the loading solution, FIG. 11) was “measurable stabilization effect” and the “biochemical activity of the luciferase component of the reagent mixture” value (trehalose added to the loading solution at levels approaching its saturation solubility) was “up to a doubling, or more”.
